Experimental data as given in patent publication US20230183263A1, “COMBINATION FOR TREATING HEPATITIS B” (FUJIAN AKEYLINK BIOTECHNOLOGY CO., LTD., priority 2020, published 2023).

Key:
D-type HBV [1] = assay: Single drug anti-HBV activity in HepG2-NTCP in vitro infection model; type: cell-based, Hepatitis B Virus; conditions: for EC50: Hepatitis B virus, 216 h, HepG2-NTCP
Description: (§1) In this study, HepG2-NTCP cell in vitro infection model was used to evaluate the inhibitory activity of a combined administration of compound WWSO with Entecavir (ETV) on HBV The content of HBV DNA in cell supernatant was detected by real-time quantitative PCR (qPCR) method, and the content of HBeAg and HBsAg was detected by ELISA, and the anti-HBV activity of the combined action of the compound was determined, while CellTiter-Glo was used to detect the effect of the test compound on cell viability.
(§2) Cell line: HepG2-NTCP cell line was constructed and provided by WuXi AppTec. HepG2-NTCP cells were HepG2 cells stably transfected and continued to highly express the human NTCP gene, and were susceptible to be infected by HBV The cell medium was DMEM medium added with 10% fetal bovine serum, 1% Penicillin-Streptomycin, 1% glutamine, 1% non-essential amino acids and G418 (500 µg/mL).
Virus: D-type HBV was concentrated from HepG2.2.15 cell culture supernatants.
2.1 On day 0, HepG2-NTCP cells were seeded into a 48-well cell culture plate at a density of 75,000 cells/well, and then the cells were cultured at 5% CO2 and 37° C. overnight.
2.2 On day 2, HBV was added to infect HepG2-NTCP cells.
2.3 On day 3, WWSO and ETV single drugs were administered at seven different concentrations, respectively, or WWSO in combination with ETV was administered at 5 different concentrations in orthorhombic proportion, added to 48-well plates with each combination having three duplicate plates.
2.4 On day 6, the cell supernatant was discarded and fresh medium containing the compounds was added, and the cells were cultured at 5% CO2 and 37° C. for 3 days.
(§3) 2.5 On day 9, cell plate supernatant treated by compound was collected and DNA was extracted according to the QIAamp 96 DNA Blood Kit (12) instructions. HBeAg and HBsAg were detected according to the instructions of ELISA detection kit, meanwhile, the cytotoxicity of compound pairs was detected by CellTiter-Glo kit, and the chemiluminescence intensity (RLU) of each cell well was detected by multifunctional microplate reader according to the method of kit instructions. HBV DNA was quantified by qPCR method. HBV plasmid DNA was used as the standard, and standard HBV plasmid DNA concentration was diluted 7 points starting from 10^7 copies/µL at a 10-fold gradient. The HBV DNA copy number was calculated in each test sample by fitting the standard curve using the HBV DNA copy number and CT values of each standard.

[2] = Cytotoxicity in HepG2-NTCP cells by CellTiter-Glo; type: cell-based, human; conditions: human, single drug, day 9
Description: as §1, §2, §3

[3] = Cell viability of PHH by CellTiter-Glo; type: cell-based, human; conditions: human, primary human hepatocytes (PHH), HBV infection model, administration after infection, Day 22
Description: (§4) The medium was replaced with the fresh medium containing the compound on days 4, 6, 8, 10, 12, 14, 16, 18 and 20. On day 22, the culture supernatant was collected and cell viability was detected using CellTiter-Glo. The final concentration of DMSO in the cell medium was 2%. The medium was replaced with the medium containing the compound on days 4 and 6. On day 8, the culture supernatant was collected for detecting HBV DNA, HBeAg and HBsAg, and then the collected supernatant was added with CellTiter-Glo to measure cell viability. The final concentration of DMSO in the medium was 2%. The medium was replaced with the medium containing the compound on days 4 and 6. On day 8, the culture supernatant was collected for detecting HBV DNA, HBeAg and HBsAg, and then the collected cell supernatant was added with CellTiter-Glo to measure cell viability. Cell viability detection: After collecting the cell culture supernatant, CellTiter-Glo was diluted with medium at a ratio of 1:1, and added to the cell plate, and left at room temperature for 10 minutes to detect the luminescence value with a microplate reader. Cell activity% = (luminescence value of sample-average value of blank control well)/(luminescence value of DMSO control group-average value of blank control well) × 100 CC50 and EC50 were calculated by GraphPad Prism software, and the inhibition curve fitting method was sigmoidal dose-response (variable slope).

[4] = test system: human primary hepatocytes (PHH); assay: Cell viability of PHH by CellTiter-Glo; type: cell-based
Description: as §4

D-type HBV [5] = assay: Single drug in vitro antiviral activity in HBV-infected PHH (HBV DNA qPCR, HBeAg and HBsAg ELISA); type: cell-based, Hepatitis B Virus; conditions: for EC50: Hepatitis B virus, 192 h, Day 8
Description: 1. The PHH model was used to evaluate the single drug in vitro antiviral activity of the test compound
On day 0, primary human hepatocytes were resuscitated and plated into two 48-well plates (1.32×10^5 cells/well).
On day 1, HBV was added to infect PHH (2000 GE/cell). […] Fresh medium with compound was replaced every 1 to 2 days.
The final concentration of DMSO in the medium was 2%.
The medium was replaced with the fresh medium containing the compound on days 4, 6, 8, 10, 12, 14, 16, 18 and 20. On day 22, the culture supernatant was collected and cell viability was detected using CellTiter-Glo.
Cell culture supernatants on days 8, 14 and 22 were collected for HBV DNA, HBeAg and HBsAg detection.
(§5) HBV DNA detection: DNA in the supernatant was extracted according to the DNA extraction kit (Qiagen-51162), and HBV DNA in the sample was quantified by qPCR method, and the qPCR reaction system is shown in Table 6. HBV plasmid DNA was used as a standard for 10-fold serial dilution, and the standard range was from 1.0× 10^7 copies/µL to 10 copies/µL. The PCR reaction program was: Heating at 95° C. for 10 minutes, then cycle mode was entered, and heating at 95° C. for 15 seconds, then at 60° C. for 1 minute for a total of 40 cycles. The HBV DNA content in the samples was calculated based on the standard curve and the Ct value of each sample.
(§6) Detection of HBeAg and HBsAg: According to the instructions of ELISA kit, the levels of HBeAg and HBsAg in supernatant were detected. The method was briefly described as follows: 50 µL, of standard was taken, and sample and control sample were added into the detection plate, then 50 µL of enzyme conjugate was added to each well, incubated at 37° C. for 60 minutes, and washed with a washing solution and then dried, and then 50 µL of pre-mixed luminescent substrate was added and the mixture was incubated at room temperature for 10 minutes in the dark, and finally the luminescence value was measured by a microplate reader. The content of HBeAg and HBsAg in the sample was calculated according to the standard curve and the chemiluminescence value of each sample.
(§7) Inhibition rate %=(1- HBV DNA content or HBsAg content or HBeAg content in the sample/HBV DNA content or HBsAg content or HBeAg content in DMSO control group) × 100
CC50 and EC50 were calculated by GraphPad Prism software, and the inhibition curve fitting method was sigmoidal dose-response (variable slope).

HepG2-NTCP cells = assay: Cytotoxicity in HepG2-NTCP cells by CellTiter-Glo; type: cell-based, human; conditions: single drug and combined action experiments
Description: as §1, §2, §3

D-type HBV [6] = assay: Combined administration in HBV-infected PHH, 5x5 matrix, MacSynergy II analysis; type: cell-based, Hepatitis B Virus; conditions: two-drug combination with Peg-IFNα-2a; for antagonistic index (inhibition of HBsAg and HBeAg): 95% confidence interval
Description: On day 0, primary human hepatocytes were resuscitated and plated into six 48-well plates (1.32×10^5 cells/well).
On day 1, […] (2000 GE/cell). On the second day, different groups of combined drugs were added for treatment:
The arrangement of the compounds in the combined action is shown in Table 2, and the test concentrations of the compounds are shown in Table 3.
(§8) The final concentration of DMSO in the cell medium was 2%. The medium was replaced with the medium containing the compound on days 4 and 6. On day 8, the culture supernatant was collected for detecting HBV DNA, HBeAg and HBsAg, and then the collected supernatant was added with CellTiter-Glo to measure cell viability.
The arrangement of the compounds in the combined action is shown in Table 4, and the test concentrations of the compounds are shown in Table 5.
as §8, with “in the medium was” for “in the cell medium was”, “the collected cell supernatant was” for “the collected supernatant was”
as §5, §6, §7
Combined efficacy was analyzed by MacSynergy™ II software.

EC50 (D-type HBV [1]; day 9, read-out: HBV DNA EC50) [nM] | EC50 (D-type HBV [1]; day 9, read-out: HBeAg EC50) [nM] | EC50 (D-type HBV [1]; day 9, read-out: HBsAg EC50) [nM] | Structure (SMILES) | CC50 at 9 day of experiment (read-out) [2] [nM] | combined effect on the inhibition of HBsAg and HBeAg (D-type HBV [6]) | antagonistic index (inhibition of HBsAg and HBeAg) (D-type HBV [6]) | other results
0.06 | > 20 | > 20 | C=C1[C@H](CO)[C@@H](O)C[C@@H]1n1cnc2c(=O)[nH]c(N)nc21 [ETV, Entecavir, reference compound] | > 20 |  |  | 
1.01 | 2.51 | 3.19 | COCCCOc1cc2c(cc1Cl)-c1cc(=O)c(C(=O)O)cn1[C@H](c1cccs1)O2 [WWS0] | > 100 |  |  | CC50 at 22 day of experiment (read-out) [3]: > 1000 nM; CC50 ([4]; administration before infection, Day 22): > 1000 nM; cytotoxicity within the test concentration range ([4]; single drug and combined action experiment): no obvious cytotoxicity; EC50 (D-type HBV [5]; PHH, administration after infection, read-out: EC50 (Day 8) HBV DNA): 45.5 nM; EC50 (D-type HBV [5]; PHH, administration after infection, read-out: EC50 (Day 8) HBeAg): 32.4 nM; EC50 (D-type HBV [5]; PHH, administration after infection, read-out: EC50 (Day 8) HBsAg): 47.3 nM; EC50 (D-type HBV [5]; PHH, administration before infection, read-out: EC50 (Day 8) HBV DNA): 13.5 nM; EC50 (D-type HBV [5]; PHH, administration before infection, read-out: EC50 (Day 8) HBeAg): 26 nM; EC50 (D-type HBV [5]; PHH, administration before infection, read-out: EC50 (Day 8) HBsAg): 47.1 nM; inhibition of HBV DNA, HBeAg and HBsAg (D-type HBV [5]; PHH in vitro infection model, single drug): dose-dependent manner; inhibition of HBV replication, administration before versus after HBV infection (D-type HBV [5]; PHH, two modes of administration compared): basically the same; inhibition of HBV DNA, HBeAg and HBsAg (D-type HBV [1]; HepG2-NTCP infected by HBV): dose-dependent manner; cytotoxicity within the test concentration range (HepG2-NTCP cells): no obvious cytotoxicity
 |  |  | O=C(O)c1cn2c(cc1=O)-c1cc(Cl)c(OCCN3CCOCC3)cc1OC2c1ccccc1 (stereo not drawn) [WWS01] |  | synergistic or additive effects | 0 | 
 |  |  | COCCCOc1cc2c(cc1OC)-c1cc(=O)c(C(=O)O)cn1[C@H](c1sccc1Cl)O2 [WWS02] |  | synergistic or additive effects | 0 | 
 |  |  | O=C(O)c1cn2c(cc1=O)-c1cc(Cl)c(OCC3CC3)cc1O[C@H]2c1scnc1Cl [WWS03] |  | synergistic or additive effects | 0 | 
